# Results taken from US20250009714A1, “SELECTION AND TREATMENT OF SUBJECTS HAVING A CIRCULATING MYELOID CELL INFLAMMATORY PHENOTYPE” (Tranquis Therapeutics, Inc., priority 2021, published 2025).
# Columns and labels:
# [1] = tested on: Ly6C^hi inflammatory monocytes; assay: Ex vivo LPS stimulation of wild-type mouse whole blood, FACS of Ly6C^hi cells; type: cell-based; settings: LPS stimulated, increasing concentrations of TQS-168, 5 hours at 37° C.
# Experimental: Lipopolysaccharide (LPS) was used to induce circulating myeloid cells from wild type mice to adopt an inflammatory phenotype in vitro. […] As schematized in FIG. 1C, blood samples from wild-type mice were collected in EDTA tubes and stimulated with LPS. Whole blood was incubated at 37° C. with increasing concentrations of TQS-168 for 5 hours. Whole blood was lysed with lysis buffer from BD Bioscience for 10 minutes at 37C. Lysed blood was centrifuged at 500 g for 10 minutes. The supernatant was decanted, and cell pellet washed with Hank's balanced salt solution (HBSS). The cells were then centrifuged at 300 g for 10 minutes. They were subsequently resuspended in 2 mM EDTA FACS buffer. Fixed cells (100 μL) were washed with PBS. The cells (100 μL) were resuspended in PBS containing Zombie Aqua solution (Biolegend) at a 1:500 dilution. The cells were incubated in the dark at room temperature for 5 minutes. The cells were then washed with FACS buffer. The cells were stained with Cd11b, Ly6G, and Ly6C antibodies (BD Bioscience). The cells were then incubated with antibodies for 30 minutes. They were then washed with FACS buffer and then resuspended also in FACS buffer. Finally, the cells were acquired on flow cytometer.
# [2] = Plasma levels of TQS-168 after a single oral dose in wild-type mice; type: in vivo, mouse; settings: single 50 mg/kg dose
# Experimental: FIG. 2A plots plasma concentration of TQS-168 over time after a single oral dose of […] TQS-168 in mice. FIG. 2B is a timeline representative of the protocol of the SOD1 mouse study. Plasma levels of TQS-168 in wild-type mice were analyzed subsequently to a single 50 mg/kg dose of TQS-168.
# [3] = tested on: Ly6C^hi inflammatory monocytes in SOD1-G93A mice; assay: Fraction of inflammatory monocytes in SOD1 mice (flow cytometry of blood); type: in vivo, mouse; settings: 50 mg/kg oral gavage every 3 days from Day 70 until Day 90
# Excerpt: The SOD1-G93A transgenic mouse has proven to be a useful tool in the study of ALS. A large majority of […] in the Superoxide dismutase 1 gene. SOD1-G93A mice express human SOD1 with the G93A mutation under control of the human SOD1 promoter. The mice show a phenotype similar to Amyotrophic Lateral Sclerosis in humans. 60-day old transgenic mice overexpressing the human SOD1-G93A ALS-causing mutation (stock #002726) and wild-type mice (WT; C57BL/6J) were obtained from the Jackson Labs. Oral dosing by gavage started at 70 days of age. SOD1 mice received either TQS-168 50 mg/kg every 3 days or vehicle (same volume and frequency). The staff that dosed and assessed the mice were blinded to treatment allocation. Blood samples were collected in EDTA tubes at 2 time points: 90 days of age and time of euthanasia. Blood samples were processed for flow cytometry and plasma cytokine analysis. Flow cytometry methods employed are the same as those employed in Example 1 and Example 2.
# [4] = tested on: plasma cytokines (IL-6, IL-10, TNFα, interferon gamma, CXCL5, etc.); assay: Plasma cytokines in SOD1 mice (48-plex Procarta panel); type: in vivo, mouse; settings: 50 mg/kg oral gavage every 3 days from Day 70 until day of euthanasia
# Experimental: 60-day old transgenic mice overexpressing the human SOD1-G93A ALS-causing mutation (stock #002726) and wild-type mice (WT; C57BL/6J) were obtained from the Jackson Labs. Oral dosing by gavage started at 70 days of age. SOD1 mice received either TQS-168 50 mg/kg every 3 days or vehicle (same volume and frequency). The staff that dosed and assessed the mice were blinded to treatment allocation. Blood samples were collected in EDTA tubes at 2 time points: 90 days of age and time of euthanasia. Blood samples were processed for flow cytometry and plasma cytokine analysis. Flow cytometry methods employed are the same as those employed in Example 1 and Example 2.
# Blood samples were collected from SOD1 mice at Day 90 and time of euthanasia. Plasma samples were assayed using the 48-plex Procarta panel (Thermo Fisher).
# [5] = tested on: SOD1-G93A mice; assay: Survival in SOD1 mice (time from birth to euthanasia, righting reflex); type: in vivo, mouse
# Experimental: 60-day old transgenic mice overexpressing the human SOD1-G93A ALS-causing mutation (stock #002726) were obtained from the Jackson Labs. Dosing started at 70 days of age. SOD1 mice received either TQS-168 50 mg/kg every 3 days or vehicle (same volume and frequency) by oral gavage. The righting reflex (ability to turn over when place on their backs) was assessed every 3 days when mice were <110 days old and every day after age 110 days. Mice were euthanized if they could not right themselves in 20 seconds after being placed onto their back. Time from birth to euthanasia was calculated for each mouse and compared in the two groups.
# [6] = tested on: CD14+CD16+ monocytes; assay: Four-hour ex vivo incubation of whole blood of ALS patients, FACS of CD14+CD16+ monocytes; type: cell-based, human; settings: 4-hour ex vivo incubation
# Experimental: Whole blood samples from patients with ALS were shipped at room temperature. The percentage of CD14+CD16+ monocytes were determined by fluorescence activated cell sorting (FACS). Briefly, whole blood was lysed with lysis buffer (BD Bioscience) for 10 minutes at 37° C. Lysed blood was centrifuged at 500 g for 10 min. Supernatant was decanted and the cell pellet washed with HBSS (Hank's balanced salt solution). Cells were centrifuged at 300 g for 10 min. Cells were resuspended in FACS buffer (PBS+2% FBS[…]). Fixed cells (100 μL) were washed with PBS. Cells (100 μL) were resuspended in PBS containing Zombie Aqua (Biolegend; 1:500 dilution). Cells were incubated in the dark at room temperature for 5 minutes. Cells were washed with FACS buffer. Cells were stained with 5 μL CD16 and 5 μL CD14 antibodies (BD Bioscience). Cells were incubated with antibodies for 30 minutes. Cells were washed with FACS buffer. Cells were resuspended in FACS buffer. Cells were acquired on a flow cytometer. FIG. 5B outlines the experimental protocol for assessing the effects of ex vivo incubation with TQS-168 on the inflammatory phenotype of circulating myeloid cells in peripheral blood samples of ALS patients. Samples were obtained from iSpecimen (Lexington, MA) and BioIVT (Westbury, NY). Blood samples were processed within 36 hours of collection and were never frozen. […]
# [7] = tested on: Ppargc1α (PGC-1α) expression; settings: direct molecular binding partner unknown; cited from earlier work
# [8] = tested on: SOD1-G93A mice; settings: SOD1 mouse model; cited from earlier work
SMILES,LPS-induced increase in percentage of Ly6C^hi inflammatory monocytes [1],oral bioavailability (plasma levels) [2],increase in circulating Ly6C^hi monocytes in SOD1 mice [3],increase in plasma cytokines from Day 90 to day of euthanasia [4],survival compared with vehicle ([5]; 50 mg/kg oral gavage every 3 days),median survival ([5]; 50 mg/kg oral gavage every 3 days from 70 days of age) [days],"difference in median survival versus vehicle ([5]; 50 mg/kg oral gavage every 3 days, vehicle 129) [days]","percentage of CD14+CD16+ monocytes after incubation ([6]; 30 μM, from 1.5% without compound)",change in percentage of intermediate (CD14+CD16+) monocytes with increasing concentrations [6],effect on Ppargc1α (PGC-1α) expression [7],survival benefit in the SOD1 model (approved ALS treatments) [8]
"CC(C)(C)c1ccc(-c2nc3ccccc3[nH]2)cc1 [TQS-168, 2-(4-tert-butylphenyl)-1H-benzimidazole]",inhibits the LPS-induced increase in Ly6C^hi monocytes,orally bioavailable,inhibited the increase in circulating Ly6C^hi monocytes,inhibited this increase in plasma cytokines,survived longer,135,6,less than 1%,dose-dependent decrease,activator of Ppargc1α (PGC-1α) expression,–
CC1=NN(c2ccccc2)C(=O)C1 [edaravone],–,–,–,–,–,–,–,–,–,–,failed to display survival benefits
